PubChem BioAssay (NCI)
“And” between values parts separate entries of the source, which are not always exact repeats. Equal values may be shown once.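 Grown in 96-well plates, cells were treated for 48 hours with each compound at five concentrations. Insufficient inhibition: endpoint recorded as highest concentration tested. Here, GI50 denotes the concentration required for 50% inhibition of growth. TGI denotes the concentration required for complete inhibition of growth.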

What was measured:
Experiment in all cases: growth of human tumour cells (NCI), 48 h
SK-OV-3 ovarian = test system: SK-OV-3 ovarian
NCI-H23 lung = test system: NCI-H23 lung
HCT-116 colon = test system: HCT-116 colon
NCI/ADR-RES ovarian = test system: NCI/ADR-RES ovarian
A549 NSCLC = test system: A549 NSCLC
IGROV1 ovarian = test system: IGROV1 ovarian
HT29 colon = test system: HT29 colon
COLO 205 colon = test system: COLO 205 colon
EKVX NSCLC = test system: EKVX NSCLC
CAKI-1 renal = test system: CAKI-1 renal

Structure (SMILES)	TGI (SK-OV-3 ovarian)	TGI (NCI-H23 lung)	TGI (HCT-116 colon)	TGI (NCI/ADR-RES ovarian)	TGI (A549 NSCLC)	TGI (IGROV1 ovarian)	TGI (HT29 colon)	TGI (COLO 205 colon)	TGI (EKVX NSCLC)	TGI (CAKI-1 renal)	GI50 (SK-OV-3 ovarian)	GI50 (NCI-H23 lung)	GI50 (HCT-116 colon)	GI50 (NCI/ADR-RES ovarian)	GI50 (A549 NSCLC)	GI50 (IGROV1 ovarian)	GI50 (HT29 colon)	GI50 (COLO 205 colon)	GI50 (EKVX NSCLC)	GI50 (CAKI-1 renal)
NC(=O)N/N=C(\Cc1cc(=O)oc2cc(O)ccc12)C(=O)Nc1ccccc1C(N)=O	> 100 µM	> 100 µM	> 100 µM	> 100 µM	> 100 µM	> 100 µM	> 100 µM	> 100 µM	> 100 µM	> 100 µM										
CN1CCN(c2cc(F)c(NC3=C(Cl)C(=O)c4ncccc4C3=O)c(F)c2)CC1	28.2 µM	3.01 µM	2.26 µM	6.53 µM	16.3 µM	3.37 µM	4.04 µM	4.06 µM	3.19 µM	2.52 µM	14.7 µM	1.4 µM	0.646 µM	2.4 µM	4.21 µM	1.53 µM	2 µM	2 µM	1.7 µM	1.27 µM
COc1cc2c(cc1OCCCCCOc1ccc(-c3nc4ccccc4s3)cc1)N=C[C@@H]1CCCN1C2=O	> 25.6 µM	10.5 µM	12.4 µM	15.6 µM	20.4 µM	43.5 µM	18 µM	6.53 µM	> 21.2 µM	> 62 µM	8.97 µM	2.6 µM	1.23 µM	2.55 µM	5.29 µM	4.39 µM	1.58 µM	1.32 µM	5.66 µM	2.36 µM
C[C@]12CC[C@H]3[C@@H](CCC4=CC(=O)CC[C@@]43C)[C@]1(O)CC[C@]2(O)C(=O)CO	> 100 µM	> 100 µM	> 100 µM	> 100 µM	> 100 µM	> 100 µM	> 100 µM	> 100 µM	> 100 µM	> 100 µM										
CC(C)OC(=O)Nc1c([N+](=O)[O-])cc(C(F)(F)F)cc1[N+](=O)[O-]	> 100 µM	> 100 µM	> 100 µM	> 100 µM	> 100 µM	> 100 µM	> 100 µM	> 100 µM	> 100 µM	> 100 µM										
CCOc1ccc2nc3cc(N)ccc3c(N)c2c1	14.2 µM and 15.6 µM	13.2 µM and 11.3 µM	15.4 µM and 14.2 µM	> 100 µM	28.6 µM and 26.2 µM	37.3 µM and 45.4 µM	19.5 µM and 17.9 µM	13.4 µM and 4.69 µM	36.7 µM and 41.4 µM	> 100 µM and 76.3 µM	2.67 µM and 3.65 µM	2.2 µM and 2.31 µM	3.62 µM and 3.63 µM	9.69 µM and 24.6 µM	9.61 µM and 10.9 µM	11.5 µM and 15.3 µM	5.77 µM and 5.22 µM	3 µM and 1.25 µM	9.76 µM and 7.63 µM	36.1 µM and 22.8 µM
COc1cccc2c1C(=O)c1c(O)c3c(c(O)c1C2=O)C[C@@](O)(/C(C)=N/NC(=O)c1cccc([N+](=O)[O-])c1)C[C@@H]3OC1CC(N)C(O)C(C)O1 (some centres not stated)	7.56 µM	2.87 µM	5.25 µM	35.8 µM	11.8 µM		11.2 µM	1.5 µM	4.66 µM	2.74 µM	0.374 µM	0.316 µM	0.131 µM	5.26 µM	0.362 µM	0.932 µM	0.238 µM	0.208 µM	0.495 µM	0.411 µM
COc1ccc2c(c1[N+](=O)[O-])CC[C@@H]1[C@@H]2CC[C@]2(C)C(=O)CC[C@@H]12		> 1000 µM		> 1000 µM	> 1000 µM	> 1000 µM	> 1000 µM		> 1000 µM	> 1000 µM	413 µM	679 µM	> 1000 µM	515 µM	> 751 µM	741 µM	> 1000 µM	> 1000 µM	> 580 µM	660 µM
Clc1cccc(-c2cc(-c3ccc4c(c3)OCCO4)[nH]n2)c1	46.7 µM	57.4 µM	40.3 µM	33.8 µM	44.5 µM	36.7 µM	31.6 µM	30.1 µM	45.6 µM	36.3 µM	5.42 µM	8.66 µM	5.96 µM	1.11 µM	1.55 µM	2.47 µM	0.952 µM	1.42 µM	11.5 µM	1.61 µM
CCCCCOC(=O)c1c(C)[nH]c(/C=C2\N=C(c3ccc[nH]3)C=C2OC)c1C	2.38 µM	1.47 µM	0.349 µM	1.33 µM	0.184 µM	1.52 µM	1.34 µM	1.04 µM		0.335 µM	0.209 µM	0.057 µM	0.0193 µM	0.0391 µM	0.0293 µM	0.0494 µM	0.0154 µM	0.0331 µM		0.0335 µM
C/C(=C1\C(=O)Nc2ccccc21)c1cccc(/C(C)=C2/C(=O)Nc3ccccc32)n1	> 100 µM	60.5 µM	> 100 µM	44.8 µM	> 100 µM	> 100 µM	> 100 µM	> 100 µM	5.4 µM	24.3 µM	26.2 µM	16.8 µM	9.93 µM	4.93 µM	7.38 µM	35.6 µM	8.09 µM	7.32 µM	0.692 µM	2.34 µM
COc1ccc2c(c1)c(-c1ccc(-c3cn(C)c4ccc(OC)cc34)s1)cn2C	> 100 µM	> 100 µM	> 100 µM	> 100 µM	> 100 µM	> 100 µM	> 100 µM	> 100 µM	> 100 µM	> 100 µM	> 100 µM	> 100 µM	> 100 µM	> 100 µM	> 100 µM	> 100 µM	> 100 µM	> 100 µM	> 100 µM	> 100 µM
Cc1cc2c(cc1Cl)SC(=Nc1ccc(Cl)cc1)N(S(=O)(=O)c1ccc(Br)s1)S2(=O)=O	97.1 µM	25 µM	27.8 µM	26.5 µM	48.7 µM	55.2 µM		> 100 µM	36.3 µM	42.2 µM	34.5 µM	10.8 µM	14.7 µM	12.2 µM	18 µM	17.6 µM		17.8 µM	16.8 µM	19.5 µM
